pIC50: −log10 of the molar value.
Experiments:
CYP24 = molecular target: T1, CYP24 (Homo sapiens, UniProt Q07973); experiment: CYP24 enzyme assay (V79-CYP24 cells, 3H-1α,25(OH)2D3 substrate); format: cell-based; conditions: substrate 20 nM, 2 hours, read-out: IC50 in the inhibition of CYP24
T1 construct: expressed in transfected cells; host or cells: V79-CYP24 cells (V79 = Chinese hamster lung fibroblasts, own knowledge; kept under hygromycin selection)
T1 sequence (Q07973 36-514): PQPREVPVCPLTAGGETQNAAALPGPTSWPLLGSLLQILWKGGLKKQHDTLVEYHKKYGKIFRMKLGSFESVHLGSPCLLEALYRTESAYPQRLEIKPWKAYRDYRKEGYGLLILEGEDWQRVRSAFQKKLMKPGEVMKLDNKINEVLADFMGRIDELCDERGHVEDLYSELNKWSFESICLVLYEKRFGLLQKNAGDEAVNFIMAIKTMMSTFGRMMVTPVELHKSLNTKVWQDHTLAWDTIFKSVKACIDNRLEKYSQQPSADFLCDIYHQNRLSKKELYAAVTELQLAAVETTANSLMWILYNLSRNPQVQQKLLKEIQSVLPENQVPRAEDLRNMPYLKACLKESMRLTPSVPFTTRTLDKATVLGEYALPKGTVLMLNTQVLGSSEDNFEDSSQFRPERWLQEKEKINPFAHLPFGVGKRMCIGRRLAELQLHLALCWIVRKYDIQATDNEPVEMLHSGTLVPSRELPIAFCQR
Procedure: (i) Material and Reagents:
Substrates (1 mM) reconstituted in isopropanol
1. Preparation of Cell Suspension • On the day of the assay, washed the monolayer of V79-CYP24 cells once with 1×PBS buffer and then trypsinized for 5 min at room temperature (approx. 22° C.). Added 1×PBS. Collected cells into tube, centrifuged cells (500×g, 5 min) and resuspended in DMEM+1% BSA media. Counted cells and adjusted density to 2 million/1 mL.
2. Cell Plating • Added 80 μl of cell suspension to appropriately labeled wells of a 96-well plate. Incubated plate for 45 minutes at 37° C. in a humidified atmosphere containing 5% CO2.
3. Compound Addition • Added 10 μl of inhibitor (10^−6 to 10^−10 M) and then after 35-40 min added 10 μl of substrate [^3H-1β]-1α,25(OH)2D3 (20 nM) for 2 hours at 37° C. in a humidified atmosphere containing 5% CO2. Both inhibitor and substrate were prepared in DMEM with 1% BSA media.
4. Lipid Extraction and Counting • Added 250 μl of methanol to stop the reaction and mixed. Added […] of dichloromethane, covered block and vortexed. Added […] of dichloromethane again, added […] of saturated KCl and vortexed. Centrifuged at 3000 rpm for 30 min. Triplicate 100 μl aliquots of aqueous fraction were mixed with 200 μl of scintillation fluid and the radioactivity was measured using a scintillation counter. All values were normalized for background. (iii) Results: • 1. […] (iv) Reference: 1. PCT Patent Application Serial No. PCT/CA03/00620

VDR = molecular target: T2, VDR (Homo sapiens, UniProt P11473); experiment: VDR binding assay ([3H]-1,25(OH)2D3 displacement); conditions: human recombinant VDR; read-out: B50 (VDR binding, displacement of 50 percent [3H]-1,25(OH)2D3)
T2 construct: purchased Biomol
T2 sequence (P11473 1-427): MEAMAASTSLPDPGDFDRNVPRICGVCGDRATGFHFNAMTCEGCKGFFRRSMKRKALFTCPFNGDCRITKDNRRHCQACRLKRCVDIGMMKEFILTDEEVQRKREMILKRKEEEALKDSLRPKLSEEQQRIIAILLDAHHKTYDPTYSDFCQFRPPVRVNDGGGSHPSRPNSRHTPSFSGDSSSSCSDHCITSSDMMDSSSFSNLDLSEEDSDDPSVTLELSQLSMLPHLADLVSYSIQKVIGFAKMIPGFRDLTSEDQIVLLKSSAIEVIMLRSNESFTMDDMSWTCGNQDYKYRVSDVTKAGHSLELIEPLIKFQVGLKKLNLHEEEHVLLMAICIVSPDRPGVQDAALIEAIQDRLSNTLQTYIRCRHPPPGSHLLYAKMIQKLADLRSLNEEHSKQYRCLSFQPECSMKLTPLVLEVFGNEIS
Procedure: • 1. VDR 9.4 μmol/μl (human, recombinant, Biomol). • 2. [^3H]-1,25(OH)2D3 in ethanol • 3. 1,25(OH)2D3 in ethanol • 4. TEK300 • Tris-HCl 50 mM • EDTA 1.5 mM • KCl 300 mM • Adjusted pH to 7.4 (25° C.) • 5. TEDK300 • TEK300 • DTT (dithiothreitol) 10 mM (MW 154.24) • 6. Tris buffer • 22.50 g Tris-HCI • 500 ml H2O • 13.25 g Tris-base • 500 ml H2O • Kept in 4° C. • 7. Dextran-T70 (Mol 70,000) Pharmacia • 8. Charcoal (carbon decolorizing neutral, norit) Fisher Scientific • 9. Gelatin (G-2625 Sigma) (ii) Reagent Preparation: 1. Charcoal Dextran Solution
(1) Tris Buffer • Mixed equal amount of Tris-HCl and Tris-base.
(2) Norit decolorizing neutral charcoal 2.0 g • Tris buffer 150 mL • Stirred
(3) Dextran T-70 0.2 g • Tris buffer 50 ml.
(4) Slowly dripped the suspended dextran into charcoal solution with stirring. • Kept in refrigerator overnight. • Thirty minutes before use, stored on ice with continuous mixing. 2. […]
• Pipetted 100 μL of the upper, aqueous phase to a 24 well scintillation counting plate and added 600 μL scintillation fluid per well, covered and mixed well. Counted the plate using a scintillation counter for 5 min/sample. (iv) Calculations: • The amount of 1,25(OH)2D3 to displace 50 percent [^3H]-1,25(OH)2D3 from VDR was calculated as B50 for 1,25(OH)2D3. The VDR binding of other compounds was calculated as B50 relative to a value of 1 for 1,25(OH)2D3. • Serial Dilution of 1,25(OH)D3

pIC50 (CYP24): 7.68
pIC50 (VDR): 7.22
Compound: C=C1/C(=C\C=C2/CCC[C@]3(C)C([C@H](C)C/C=C/C(=NOC)C(C)(C)C)=CC[C@@H]23)C[C@@H](O)C[C@@H]1O [(20R)-I(e)]
